Assay results published in patent US7855300B2, “Bis(trimethylsilyl)phenyl compound or salt thereof, and use thereof” (Taiho Pharmaceutical Co., Ltd., priority 2007, dated 2010).

Assays:
[1] = Rat toxicity test, oral administration for 4 weeks; type: in vivo, male SD rats; set-up: key: +: recognized; −: not observed
Method: The compounds of the present invention and the reference compound TAC-101 were orally administered to male SD rats (CLEA Japan, Inc.) for 4 weeks. The dosage of each compound was 6 mg/kg or 24 mg/kg per rat. Differences in toxic symptoms were compared and studied.

[2] = test system: JHH-7 (human hepatocellular carcinoma cell lines); experiment: Antitumor effect in JHH-7 orthotopic liver transplantation model; type: in vivo, male nude mice (BALB/cA Jcl-nu); settings: 16 mg/kg orally once per day for 14 days; tumor weight on 15th day; T/C×100
Method: RARα high expression cells, i.e., human hepatocellular carcinoma cell lines JHH-7, were implanted in the outside left lobe of the liver of male nude mice (BALB/cA Jcl-nu; CLEA Japan, Inc.) under Nembutal anesthesia in an amount of 1×10^6 cells (0.02 ml) per mouse. On the 11th to 14th day after implantation, the mice were divided into groups, each consisting of seven mice. The compounds of the present invention and the reference compound TAC-101 were suspended in 0.5% HPMC and 1.6 mg/ml solution was orally administered to the mice at a liquid dose of 10 ml/kg, namely, at a dose of 16 mg/kg, once per day for 14 days. On the 15th day after the start of administration, the mice were exsanguinated to death under ether anesthesia. Tumors formed in the outside left lobe of the liver were extracted, and the tumor weight was measured to assess the antitumor effect. The antitumor effect was evaluated by calculating the tumor growth rate (%) using the following equation. The antitumor effect of each compound was analyzed by Student's test and statistical significance was determined. Tumor growth rate(%)=T/C×100 T: Average tumor weight in the groups administered with the test compounds C: Average tumor weight in the groups not administered with test compounds

[3] = test system: Human prostatic carcinoma cell lines TSU-Pr1; experiment: Growth inhibitory and differentiation-inducing effect on prostate cancer cells; type: cell-based; settings: 10 μM, IGF-I 10 ng/ml; for Change in cell shape (differentiation-inducing activity): after three days, FIG. 4; for Cytostatic activity (crystal violet staining): 7th day after culturing, FIG. 5
Method: Human prostatic carcinoma cell lines TSU-Pr1 prepared in RPMI1640 culture medium containing 2% fetal bovine serum were plated into a 24-well culture plate at a cell density of 3×10^3 cells per well. The next day, IGF-I (10 ng/ml) was added as a growth factor, and the cells were treated with Compounds 2 and 3 of the present invention and the reference compound TAC-101 each in an amount of 10 μM. Change in cell shape after three days was observed. Moreover, on the 7th day after culturing, the cells were fixed with 25% glutaraldehyde solution. Cytostatic activity was determined by the crystal violet staining method, and the statistical significance of the cytostatic activity was analyzed by Student's test. […] In the Control group that was not treated with medicine, a cobblestone-like shape and vigorous cell division were observed. Such cell shape is characteristic of epithelioid cancer cells.

[4] = test system: non-small cell lung cancer; settings: phase I study, Non-Patent Document 5; cited from earlier work
[5] = test system: Human prostatic carcinoma cell lines TSU-Pr1; experiment: Cancer malignancy-reducing effect (tumorigenicity of pretreated TSU-Pr1 cells implanted in nude mice); type: in vivo, male nude mice (BALB/cA Jcl-nu); settings: cells treated 72 hours, six subcutaneous sites, 26th day after implantation
Method: Human prostatic carcinoma cell lines TSU-Pr1 were treated with Compound 3 of the present invention and the reference compound TAC-101 for 72 hours. The cells were subcutaneously implanted into male nude mice (BALB/cA Jcl-nu; CLEA Japan, Inc.) at six sites in total per mouse. On the 26th day after implantation, the rate of subcutaneous tumor formation was observed and the effect of reducing cancer malignancy was evaluated. Statistical significance was analyzed by Wilcoxon test.

Row | melting point | SMILES | Alopecia Symptom ([1]; 6 mg/kg) | Endocortical Proliferation ([1]; 6 mg/kg) | Alopecia Symptom ([1]; 24 mg/kg) | Endocortical Proliferation ([1]; 24 mg/kg) | Tumor Growth Rate (%) [2] | Change in cell shape (differentiation-inducing activity) [3] | Clinical response [4] | Side effects [4] | Graft Survival (%) [5] | Tumor Formation [5] | Cytostatic activity (crystal violet staining) [3]
1 |  | C/C(=C\c1ccc(NC(=O)c2cc([Si](C)(C)C)cc([Si](C)(C)C)c2)cc1F)C(=O)O [Compound 14, (E)-3-[4-[[3,5-Bis(trimethylsilyl)benzoyl]amino]-2-fluorophenyl]-2-methylacrylic acid] | − | − | − | − |  |  |  |  |  |  | 
2 |  | C[Si](C)(C)c1cc(C(=O)Nc2ccc(C(=O)O)cc2)cc([Si](C)(C)C)c1 [TAC-101, 4-[3,5-bis(trimethylsilyl)benzamido]benzoic acid, reference compound] | + | − | + | + | 52% | no significant change was recognized in the shape | complete remission cases were reported | symptoms (skin disorders) similar to hypervitaminosis A were observed | 67% | 4/6 | 
3 |  | C[Si](C)(C)c1cc(C(=O)Nc2ccc(/C=C/C(=O)O)cc2)cc([Si](C)(C)C)c1 [Compound 3, 4-[[3,5-Bis(trimethylsilyl)benzoyl]amino]cinnamic acid] | − | − | − | − | 25% | dramatic change was recognized in the shape of neuroid cells |  |  | 17% | 1/6 | dramatic cytostatic effect was recognized
4 |  | C/C(=C\C(=O)O)c1ccc(NC(=O)c2cc([Si](C)(C)C)cc([Si](C)(C)C)c2)cc1 [Compound 6, (E)-3-[4-[[3,5-Bis(trimethylsilyl)benzoyl]amino]phenyl]-2-butenoic acid] |  |  |  |  | 31% |  |  |  |  |  | 
5 | 302 °C (dec.) | C[Si](C)(C)c1cc(C(=O)Nc2ccc(/C=C/C(=O)O)cn2)cc([Si](C)(C)C)c1 |  |  |  |  |  |  |  |  |  |  | 
6 |  | C[Si](C)(C)c1cc(C(=O)Nc2ccc(/C=C/C(=O)O)c(F)c2)cc([Si](C)(C)C)c1 [Compound 2, 4-[[3,5-Bis(trimethylsilyl)benzoyl]amino]-2-fluorocinnamic acid] | − | − | − | − | 21% | dramatic change was recognized in the shape of neuroid cells |  |  |  |  | dramatic cytostatic effect was recognized
7 |  | C/C(=C\C(=O)O)c1ccc(NC(=O)c2cc([Si](C)(C)C)cc([Si](C)(C)C)c2)cc1F [Compound 11, (E)-3-[4-[[3,5-Bis(trimethylsilyl)benzoyl]amino]-2-fluorophenyl]-2-butenoic acid] |  |  |  |  | 36% |  |  |  |  |  | 
